Structures are written as SMILES. Where “and” joins values, the source holds several entries; their conditions need not be identical. Identical values can stand only once.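 Grown in 96-well plates, cells were treated for 48 hours with each compound at five concentrations. Insufficient inhibition: endpoint recorded as highest concentration tested. Here, GI50 denotes the concentration required for 50% inhibition of growth. The concentration for full growth arrest is given as TGI.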 Where only a bound is given, the exact number is not on record here.

The record followed here is PubChem BioAssay (NCI).

Test systems include PC-3 prostate; M14 melanoma; HCT-116 colon; HCT-15 colon; HL-60(TB) leukemia; UACC-257 melanoma; NCI-H23 lung; NCI-H226 lung.
Holding throughout (experiment): growth of human tumour cells (NCI), 48 h

Consider `CC1(C)OC2[C@@H](CNC(=O)NC(=O)NC(=O)CI)O[C@@H](n3cnc4c(NC(=O)Nc5ccccc5)ncnc43)[C@H]2O1` (stereo partly drawn), for which the GI50 with PC-3 prostate is 8 µM; with M14 melanoma it was 6.95 µM; with HCT-116 colon, 10.7 µM; in the assay on HCT-15 colon, 4.84 µM; with HL-60(TB) leukemia, 1.61 µM; with UACC-257 melanoma it was 9.91 µM. The GI50 with NCI-H23 lung is 7.46 µM; with NCI-H226 lung it was 8.96 µM. The TGI with PC-3 prostate stood at 16.6 µM; with M14 melanoma, 14.3 µM; in the assay with HCT-116 colon it was 25.4 µM; in the assay on HCT-15 colon, 11.9 µM; in the assay on HL-60(TB) leukemia, 4.13 µM; with UACC-257 melanoma, 17.8 µM. Also, the TGI was 16.7 µM in the assay with NCI-H23 lung and 20.3 µM in the assay with NCI-H226 lung.
For the molecule `COc1cc(C2NC(=O)c3ccccc3N2)ccc1OCCCCCOc1c(OC)cc(C2=NOC(c3cc(OC)c(OC)c(OC)c3)C2)cc1OC` (stereo not drawn), the GI50 was 4.62 µM in the assay with PC-3 prostate; 20.4 µM in the assay with M14 melanoma; 0.433 µM in the assay with HCT-116 colon; 3.34 µM in the assay on HCT-15 colon; 11.7 µM in the assay with HL-60(TB) leukemia; 0.296 µM in the assay with UACC-257 melanoma. For the same molecule, in the assay on NCI-H23 lung, the GI50 is 0.484 µM. The TGI in the assay on PC-3 prostate is more than 66.5 µM; in the assay on M14 melanoma it was more than 93 µM; in the assay on HCT-116 colon it was 32.4 µM; with HCT-15 colon, more than 100 µM; with HL-60(TB) leukemia it was more than 53.9 µM; with UACC-257 melanoma, 69.9 µM. Moreover, the TGI in the assay with NCI-H23 lung is more than 80 µM; in the assay with NCI-H226 lung, more than 100 µM.
Consider `CC[C@@H]1CN(C)[C@H]2Cc3c([nH]c4ccccc34)C(=O)C[C@H]1C2C(=O)OC` (stereo partly drawn), for which the TGI in the assay with PC-3 prostate, with M14 melanoma, in the assay on HCT-116 colon, in the assay on HCT-15 colon, in the assay with HL-60(TB) leukemia and with UACC-257 melanoma was more than 100 µM each time. The TGI with NCI-H23 lung and in the assay with NCI-H226 lung was more than 100 µM each time.
Take `COC1/C=C\C=C(/C)C(=O)NC2=CC(=O)C(=O)C(=C2O)CC(C)CC(OC)C(O)C(C)/C=C(\C)C1OC(N)=O` (stereo not drawn): the TGI in the assay on PC-3 prostate was more than 37.7 µM; with M14 melanoma, more than 53.2 µM; in the assay with HCT-116 colon, 14.4 µM; in the assay on HCT-15 colon it was more than 100 µM; in the assay with HL-60(TB) leukemia it was more than 35.5 µM; in the assay with UACC-257 melanoma it was more than 36.3 µM. Moreover, the TGI in the assay on NCI-H23 lung and with NCI-H226 lung was more than 100 µM in each case.
For the molecule `FC(F)(F)c1cccc(Nc2nccc(-c3cnn4nc(-c5ccccc5)ccc34)n2)c1`, the GI50 was 8.48 µM in the assay on PC-3 prostate; 12 µM in the assay with M14 melanoma; 5.92 µM in the assay on HCT-116 colon; 8.5 µM in the assay with HCT-15 colon; more than 25 µM in the assay with HL-60(TB) leukemia; 15.8 µM with UACC-257 melanoma. In addition, the GI50 in the assay with NCI-H23 lung is 9.13 µM; in the assay on NCI-H226 lung, more than 25 µM. Moreover, the TGI was more than 20.8 µM in the assay on PC-3 prostate; 24.5 µM with M14 melanoma; 14.8 µM in the assay with HCT-116 colon; 24.4 µM in the assay with HCT-15 colon; more than 25 µM in the assay on HL-60(TB) leukemia; more than 25 µM in the assay with UACC-257 melanoma. For the same molecule, the TGI in the assay with NCI-H23 lung and in the assay on NCI-H226 lung was more than 25 µM each time.
As to `O=C1Nc2c(C(F)(F)F)cccc2[C@]1(c1ccc(O)cc1)c1ccc(OC(F)(F)F)cc1`, the GI50 was 4.31 µM in the assay on PC-3 prostate; 14.2 µM with M14 melanoma; 7.73 µM with HCT-116 colon; 9.43 µM with HCT-15 colon; 13.7 µM in the assay with HL-60(TB) leukemia; 11.8 µM in the assay on UACC-257 melanoma. Besides, the results for the GI50 in the assay on NCI-H23 lung and with NCI-H226 lung were 11 µM and 11.6 µM, respectively. In addition, the TGI with PC-3 prostate was 21.3 µM; with M14 melanoma, 29.2 µM; in the assay on HCT-116 colon, 23.9 µM; with HCT-15 colon it was 23.3 µM; in the assay with HL-60(TB) leukemia, 32.5 µM; in the assay on UACC-257 melanoma, 24.9 µM. In addition, the figures for the TGI with NCI-H23 lung and with NCI-H226 lung were 26.4 µM and 32.4 µM, respectively.
Turning to `Oc1ccc(CN2CCC(N3CCCCC3)CC2)c2cccnc12`, the GI50 was 7.15 µM in the assay on PC-3 prostate; 5.75 µM in the assay with M14 melanoma; 4.49 µM with HCT-116 colon; 5.83 µM with HCT-15 colon; 6.86 µM in the assay on HL-60(TB) leukemia; 27.6 µM in the assay on UACC-257 melanoma. Besides, the GI50 with NCI-H23 lung is 6.05 µM; with NCI-H226 lung it was 29 µM. The TGI was more than 100 µM with PC-3 prostate; more than 100 µM in the assay with M14 melanoma; more than 100 µM in the assay with HCT-116 colon; more than 100 µM in the assay on HCT-15 colon; 46.7 µM in the assay with HL-60(TB) leukemia; 99.3 µM in the assay on UACC-257 melanoma. The TGI was more than 100 µM in the assay with NCI-H23 lung and 82.2 µM with NCI-H226 lung.
In the case of `CC[C@@H]1C(=O)N(C)c2cnc(Nc3ccc(C(=O)NC4CCN(C)CC4)cc3OC)nc2N1C1CCCC1`, the GI50 with PC-3 prostate is 0.00454 µM and < 0.01 µM; in the assay on M14 melanoma, 0.00384 µM and < 0.01 µM; in the assay on HCT-116 colon it was 0.00366 µM and < 0.01 µM; in the assay with HCT-15 colon it was 0.186 µM and 0.219 µM; with HL-60(TB) leukemia, 0.00231 µM and < 0.01 µM; in the assay with UACC-257 melanoma it was 0.903 µM and 0.103 µM. Further, the GI50 with NCI-H23 lung is 0.00443 µM and < 0.01 µM; with NCI-H226 lung it was 0.343 µM and 0.982 µM. Further, the TGI in the assay on PC-3 prostate was > 10 µM and 19.1 µM; in the assay with M14 melanoma, > 4.22 µM and 2.37 µM; with HCT-116 colon it was > 4.05 µM and 1.45 µM; in the assay with HCT-15 colon, > 4.57 µM and 6.38 µM; with HL-60(TB) leukemia, 0.00631 µM and 0.0445 µM; in the assay on UACC-257 melanoma it was > 5.26 µM and 1.98 µM. Also, the TGI was > 5.03 µM and 6.4 µM with NCI-H23 lung; > 10 µM and 16.8 µM in the assay on NCI-H226 lung.
As for `CCN(CC)CCOc1ccc(/C(=C(\Cl)c2ccccc2)c2ccccc2)cc1`, the GI50 is 2.63 µM and 2.76 µM with PC-3 prostate; 1.03 µM and 1.73 µM in the assay on M14 melanoma; 2.03 µM and 1.49 µM with HCT-116 colon; 1.47 µM and 1.72 µM with HCT-15 colon; 2.1 µM and 3.13 µM in the assay with HL-60(TB) leukemia; 0.989 µM and 1.97 µM in the assay with UACC-257 melanoma. Besides, the GI50 in the assay with NCI-H23 lung was 5.25 µM and 2.62 µM; in the assay on NCI-H226 lung it was 5.46 µM and 4.01 µM. The TGI in the assay on PC-3 prostate was 9.02 µM and 10.2 µM; in the assay with M14 melanoma it was 2.04 µM and 3.44 µM; with HCT-116 colon it was 7.14 µM and 3.07 µM; with HCT-15 colon, 5.01 µM and 7.38 µM; in the assay on HL-60(TB) leukemia it was 7.77 µM and 6.16 µM; with UACC-257 melanoma, 2.09 µM and 4.04 µM. The TGI in the assay with NCI-H23 lung is 11.8 µM and 10.3 µM; in the assay with NCI-H226 lung, 12.9 µM and 16.3 µM.
With `Oc1ccc(NCc2nc3ccccc3[nH]2)cc1`, the GI50 is 33.6 µM in the assay on PC-3 prostate; more than 100 µM in the assay with M14 melanoma; 41.8 µM with HCT-116 colon; more than 100 µM in the assay on HCT-15 colon; more than 100 µM in the assay with HL-60(TB) leukemia; 88 µM with UACC-257 melanoma. Also, the GI50 with NCI-H23 lung was 54.5 µM; in the assay on NCI-H226 lung, more than 100 µM. Besides, the TGI in the assay with PC-3 prostate, in the assay on M14 melanoma, in the assay with HCT-116 colon, in the assay with HCT-15 colon, in the assay with HL-60(TB) leukemia and in the assay with UACC-257 melanoma was more than 100 µM in each case. Besides, the TGI with NCI-H23 lung and in the assay on NCI-H226 lung was more than 100 µM each time.
